According to US10646589B2, “Thyroid stimulating hormone receptor peptides and uses thereof” (APITOPE INTERNATIONAL NV, priority 2014, dated 2020):
Where a name gives a salt, the structure may show the parent alone.

Assays:
[1] = system: TSHR-specific splenocyte proliferation; experiment: Adenoviral animal model for GD: TSHR-specific splenocyte proliferation; type: in vivo, DR3tg mice; conditions: 10^9 Ad-TSHR; ATX-GD-459 15 nmol top dose; MMI 500 μg daily s.c. pump; to be interpreted with caution
Method: (§1) DR3tg mice were injected subcutaneously in the flank region with 22.5 pmol, 225 pmol and 2250 pmol ATX-GD-59 or control treatment on days −15, −13 and −11 respectively, followed by 3 injections of 22.5 nmol ATX-GD-59 (top dose/peptide) or control treatment on days −8, −6 and −4 (dose escalation schedule). Alterations in top doses, and correspondingly in dose escalation doses, are indicated per experiment.
(§2) Alterations in top doses, and correspondingly in dose escalation doses, are indicated per experiment. […] New osmotic pumps were implanted after 4 weeks. […] On day 0, mice were immunized by intramuscular injection with 10^9 or 10^10 Ad-TSHR viral particles and the immunization was repeated three weeks later. […] Mice were euthanized 5 weeks after the first immunization to obtain blood, thyroid and spleen samples. TSHR-induced splenocyte proliferation, cytokine secretion and anti-TSHR antibody levels were assessed as described below.

[2] = system: anti-TSHR antibodies (IgG class); experiment: Adenoviral animal model for GD: detection of anti-TSHR antibodies by ELISA; type: in vivo, DR3tg mice
Method: as §1
Anti-TSHR antibodies (IgG class) against purified recombinant TSHR-ECD (Chesapeake-Perl) were measured using ELISA. […] The signal was developed with tetramethylbenzidine (TMB).
as §2
Anti-TSHR antibodies (IgG class) against purified recombinant TSHR-ECD (Chesapeake-Perl) were measured using ELISA. […] The signal was developed with tetramethylbenzidine.
The signal was developed with tetramethylbenzidine (TMB).
Alterations in top doses, and correspondingly in dose escalation doses, are indicated per experiment. On day 0, mice were immunised by intramuscular injection with 10^9 Ad-TSHR or Ad-LacZ viral particles and the immunisation was repeated three weeks later. Five weeks after the first immunisation, blood and spleens were collected.

Total thyroxine (T4) = experiment: Detection of hyperthyroidism: total thyroxine (T4) in serum by ELISA; type: in vivo, DR3tg mice
Method: Total thyroxine (T4) was measured in undiluted mouse serum (10 μl) using the CBI mouse/rat thyroxine ELISA kit (Calbiotech, Spring Valley, Calif., USA) according to the manufacturer's instructions. T4 values were computed from standards in the kit and expressed as μg/dl.
as §2, with “experiment. Starting on the day of the first peptide treatment until termination of the experiment, mice were treated either MMI or propranolol.” for “experiment.”
Total thyroxine (T4) was measured in undiluted mouse serum (10 μl) using the CBI mouse/rat thyroxine ELISA kit (Calbiotech, Spring Valley, Calif., USA) according to the manufacturer's instructions. T4 values were computed from standards in the kit and expressed as μg/dl. In addition to serum T4 determinations, thyroid histology was used as a parameter for hyperthyroidism. Thyroid glands were fixed in 10% neutral buffered formalin (pH 7.5), processed to sections and stained with hematoxylin and eosin.

[3] = Propranolol levels in mouse plasma by LC-MSMS; type: in vivo, DR3tg mice; conditions: 10 mg/kg/day IP; 60-90 minutes post-dose; weeks 0 and 5; FIG. 18
Method: Blood samples were collected between 60 and 90 minutes post-dose and individual plasma levels compared between W0 and W5.

[4] = system: TSHR-induced T cell proliferation; experiment: Ex vivo tolerization experiment: TSHR-induced proliferation of LN cells and splenocytes after peptide pretreatment; type: in vivo, DR3tg mice; conditions: vs control-treated; s.c. dose escalation schedule; top dose 5D-K1 100 μg, 9B-N 33 μg, ATX-GD-59 15 nmol/peptide; 10 days after parental peptide/CFA immunization
Method: DR3tg mice were injected subcutaneously in the flank region with 0.1 μg, 1 μg and 10 μg peptides on days −15, −13 and −11 respectively, followed by 3 injections of 100 μg (top dose/peptide) soluble peptide (5D-K1 or 9B-N) on days −8, −6 and −4 (dose escalation schedule). The ATX-GD-59 is an equimolar mix of the peptides 5D-K1 (SEQ ID NO:1) and 9B-N (SEQ ID NO:2) and the top dose mentioned (nmol) is per peptide in the cocktail. A peptide dose of 100 ug corresponds to ˜45 nmol as both systems been used in different experiments. The peptides were administered subcutaneous in PBS. Alterations in top doses/peptide, and correspondingly in dose escalation doses, are indicated per experiment. On day 0, the mice were immunized subcutaneously in the base of the tail with 50 μg corresponding to the parental peptide (non-modified 5D and/or 9B) emulsified in Complete Freund adjuvants (CFA; 2 mg/ml Mycobacterium tuberculosis H37RA (Difco Laboratories, Michigan, US) in Incomplete Freund adjuvant (Difco)) (50 μg peptide in 100 μL CFA (100 μg H37RA)/injection). Ten days after immunization, draining LN and spleens were harvested. LN cells and splenocytes were isolated and cultured in X-vivo 15 medium supplemented with 2 mM L-glutamine, 50 U/mL penicillin and 50 U/mL streptomycin (all Lonza, Verviers, Belgium) in 96-well flat bottom plates. To investigate antigen-induced cell proliferation, 0.5×10^6 cells/well were cultured (200 μL/well) for 72 hours with TSHR-ECD in a concentration range of 0-25 μg/mL or with 12.5 μg/mL purified protein derivative (PPD; immunisation control; Statens serum institut, Copenhagen, Denmark). After 72 hours in a 37° C. incubator with 5% CO2, 60 μL of cell supernatant was harvested and frozen. 20 μL/well of tritiated thymidine (PerkinElmer, Zaventem, Belgium) were then added to the cells to obtain a final concentration of 1 μCi/well. The cells were incubated at 37° C. and 5% CO2, and after 16 h, plates were frozen. Thawed plates were harvested and read on a β-counter (Wallac 1450 Microbeta Trilux Liquid Scintillation Counter) to assess cell proliferation.
DR3tg or DR4tg mice were injected subcutaneously in the flank region with 0.1 μg, 1 μg and 10 μg of peptide on days −15, −13 and −11 respectively, followed by 3 injections of 33, 75 or 100 μg peptide (depending on top dose, see Figure legends) on days −8, −6 and −4 (dose escalation schedule). Alterations in top doses, and correspondingly in dose escalation doses, are indicated per experiment. On day 0, the mice were immunised subcutaneously in the base of the tail with 50 μg antigen (non-modified parental 15-mer peptide) emulsified in CFA (peptide/CFA). […] Thawed plates were harvested and read with β-counter (Wallac 1450 Microbeta Trilux Liquid Scintillation Counter) to assess the cell proliferation.

[5] = system: Antigen-specific T cell hybridomas with fixed or not fixed VAVY or BM14 cells (APCs); experiment: Antigen Processing Independent Presentation System (APIPS) assay; type: cell-based; conditions: 25 μg/ml peptide; fixed or fresh VAVY (DR3) or BM14 (DR4) APCs; 48 h; IL-2 ELISA
Method: 5×10^4 T cell hybridoma clones specific for RNB-5 (clone 50+35) or RNB-4 (clone 164+455) and TSHR were cultured in presence of TSHR and RNB-5D-K1 or RNB-4K-GKK in combination with 5×10^4 human DR3 expressing antigen presenting B cells (VAVY) (clone 50) or with DR4 expressing antigen presenting B cells (BM14) (Clone 35, 164, 455). Antigen-Presenting Cells (APC) were viable or previously fixed with 0.5% paraformaldehyde prior to addition to the culture wells. After 48 h of co-culture, the supernatants were harvested and analysed by ELISA to assess levels of IL-2 secretion. Results from representative clones are presented.
Antigen-specific T cell hybridomas were tested for their reactivity to the peptides, presented by fixed or not fixed VAVY or BM14 cells (=APCs). 5×10^4 cells from the individual clones were cultured with 25 μg/ml peptide and 5×10^4 fixed or fresh APCs. To fixate APCs, cells were incubated with 0.5% paraformaldehyde (Merck, Darmstadt, Germany) (pH7) for 5 min at room temperature (RT). The fixation reaction was stopped by adding 0.4M glycine (Sigma-Aldrich) and washing the cells in RPMI-10% FCS. Additionally, reactivity towards human TSHR-ECD protein (Chesapeake-PERL, Savage, Md., USA) was measured to identify epitopes. After 48 h, antigen-induced IL-2 production was measured by ELISA.

[6] = co-medication MMI 500 μg daily + ATX-GD-459 15 nmol

Cn1cc[nH]c1=S [MMI, methimazole]
effect on TSHR-specific splenocyte proliferation, MMI co-medication study [1]: significant reduction | effect on anti-TSHR antibody levels, MMI study ([2]; MMI 500 μg daily s.c. osmotic pump, 10^9 Ad-TSHR): had no effect | effect on anti-TSHR IgG isotypes, MMI study ([2]; MMI 500 μg daily, 10^9 Ad-TSHR): had no effect | changes in anti-TSHR IgG levels, model validation ([2]; MMI 50 or 500 μg/mouse/day s.c. pump for 4 weeks, Ad-TSHR week 0 and 3): no changes | effect on antibody reducing capability of ATX-GD-459 (IgG isotypes), MMI study [2, 6]: did not affect | influence on antibody reducing capability of ATX-GD-459 (total IgG), MMI study [2, 6]: did not influence | T4 levels, MMI 50 μg daily, model validation (Total thyroxine (T4); 50 μg dose): only showed a trend towards reduced T4 levels | T4 levels, MMI 500 μg daily, model validation (Total thyroxine (T4); daily dose of 500 μg, both at 2 and 4 weeks after first immunisation): significantly reduced | effect on serum T4 levels, MMI co-medication study (Total thyroxine (T4); week 5, MMI 500 μg daily, ATX-GD-459 15 nmol top dose, 10^9 Ad-TSHR): significantly reduced

CC(C)NCC(O)COc1cccc2ccccc12 (centres unmarked) [propranolol, Propranolol hydrochloride]
Total T4 levels, propranolol co-medication study (Total thyroxine (T4); week 5, propranolol 10 mg/kg/day IP, ATX-GD-459 15 nmol, 10^10 Ad-TSHR): not affected | plasma levels of propranolol [3]: confirms pharmacological dose

GLKMFPDLTKVYSTD (H-GLKMFPDLTKVYSTD-NH2) [Peptide 9B-N, TSHR peptide]
reduction of TSHR-induced T cell proliferation, LN samples [4]: 33% | reduction of TSHR-induced T cell proliferation, spleen samples [4]: 41%

KKGNLPNISRIYVSIDVTGKK (H-KKGNLPNISRIYVSIDVTGKK-NH2) [RNB-4K-GKK, modified TSHR apitope peptide]
apitope status (presentation by fixed APCs, IL-2 secretion) [5]: confirmed to be apitopes

KKKKYVSIDVTLQQLESHKKK (H-KKKKYVSIDVTLQQLESHKKK-NH2) [Peptide 5D-K1, modified TSHR apitope peptide]
reduction of TSHR-induced T cell proliferation, LN samples [4]: 60% | reduction of TSHR-induced T cell proliferation, spleen samples [4]: 43% | apitope status (presentation by fixed APCs, IL-2 secretion) [5]: confirmed to be apitopes
